Here are results for seven molecules from patent US20230330067A1, “NOVEL THIOHYDANTOIN DERIVATIVES AND USES THEREOF” (CELROS BIOTECH, priority 2020, published 2023).

In one experiment the target is T1, human Nox2 (Homo sapiens, UniProt P04839).
T1 construct: made in house; host or cells: transgenic Drosophila (UAS-hNox2/UAS-dDuox-RNAi; Da-GAL4/+), membranes from fly homogenate
T1 sequence (P04839 2-570 limits assumed): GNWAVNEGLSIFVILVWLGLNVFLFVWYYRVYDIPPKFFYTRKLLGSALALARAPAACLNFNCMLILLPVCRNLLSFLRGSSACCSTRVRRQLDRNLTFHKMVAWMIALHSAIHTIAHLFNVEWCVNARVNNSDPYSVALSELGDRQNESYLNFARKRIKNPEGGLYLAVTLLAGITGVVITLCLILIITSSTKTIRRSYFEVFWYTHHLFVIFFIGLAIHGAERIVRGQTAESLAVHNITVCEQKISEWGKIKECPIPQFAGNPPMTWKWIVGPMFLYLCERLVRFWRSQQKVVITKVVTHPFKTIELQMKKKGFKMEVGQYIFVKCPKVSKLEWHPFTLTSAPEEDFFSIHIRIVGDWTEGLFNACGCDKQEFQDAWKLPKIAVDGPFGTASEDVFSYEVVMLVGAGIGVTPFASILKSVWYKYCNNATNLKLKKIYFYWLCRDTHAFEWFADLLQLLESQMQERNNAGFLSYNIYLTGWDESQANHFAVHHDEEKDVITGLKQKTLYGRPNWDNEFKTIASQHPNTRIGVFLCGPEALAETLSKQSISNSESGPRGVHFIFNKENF
Put plainly: Lucigenin chemiluminescence assay, human Nox2. In kind it is biochemical. The settings on record: Drosophila membranes expressing hNox2; average of three assays. The source says:
(§1) Human Nox isozymes were provided from transgenic flies expressing human Nox isozymes under the daughterless (Da)-GAL4 promoter. The genotype of each fly line is shown below. • 1) Human Nox1: UAS-hNox1/UAS-dDuox-RNAi; Da-GAL4/+ • 2) Human Nox2: UAS-hNox2/UAS-dDuox-RNAi; Da-GAL4/+ • 3) Human Nox4: UAS-hNox4/UAS-dDuox-RNAi; Da-GAL4/+
(§2) Transgenic flies were homogenized with PBS containing protease inhibitors (Aprotinin and Leupeptin) to obtain Drosophila membranes of each Nox isozyme. The membranes were incubated with compounds (100 μM, 10 μM, 1 μM, 0.1 μM, 0.01 μM, 0.001 μM, and 0 μM) for 10 min on a shaker. After that, a mixture of 500 μM NADPH (beta-nicotinamide adenine dinucleotide 2′-phosphate reduced tetrasodium salt hydrate; Sigma-Aldrich) and 400 μM lucigenin (N,N′-dimethyl-9,9′-biacridinium dinitrate; Sigma-Aldrich) in 1X HEPES (4-(2-hydroxyethyl)-1-piperazineethanesulfonic acid) buffer was added to the membrane. Lucigenin chemiluminescence was detected at 1 minute intervals for 10 min using a multimode microplate reader (SpectraMax iD3, Molecular Devices). IC50 values were calculated with Graph-Pad Prism 5 (GraphPad Software).
(§3) Lucigenin chemiluminescence assays were performed with Drosophila membranes expressing hNox1, hNox2 and hNox4. The assay was repeated three times and the average of the IC50 values was determined.

For a further experiment, the target named is T2, human Nox1 (Homo sapiens, UniProt Q9Y5S8).
T2 construct: made in house; host or cells: transgenic Drosophila (UAS-hNox1/UAS-dDuox-RNAi; Da-GAL4/+), membranes from fly homogenate
T2 sequence (Q9Y5S8 1-564): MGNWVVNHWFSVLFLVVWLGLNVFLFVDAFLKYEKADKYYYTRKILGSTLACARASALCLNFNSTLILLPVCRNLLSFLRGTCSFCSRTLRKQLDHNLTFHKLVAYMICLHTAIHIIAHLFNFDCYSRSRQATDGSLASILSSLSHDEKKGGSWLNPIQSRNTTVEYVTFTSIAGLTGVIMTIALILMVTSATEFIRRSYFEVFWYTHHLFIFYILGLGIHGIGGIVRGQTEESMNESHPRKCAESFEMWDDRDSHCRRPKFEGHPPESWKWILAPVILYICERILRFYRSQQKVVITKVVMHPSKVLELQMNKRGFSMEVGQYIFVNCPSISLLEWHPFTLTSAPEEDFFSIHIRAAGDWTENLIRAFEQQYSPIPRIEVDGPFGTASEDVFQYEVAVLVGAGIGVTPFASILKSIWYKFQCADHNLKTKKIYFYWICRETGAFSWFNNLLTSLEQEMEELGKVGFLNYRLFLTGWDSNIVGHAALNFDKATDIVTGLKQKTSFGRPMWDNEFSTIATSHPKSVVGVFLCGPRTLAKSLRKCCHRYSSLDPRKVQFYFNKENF
Briefly: Lucigenin chemiluminescence assay, human Nox1. In kind it is biochemical. Particulars: Drosophila membranes expressing hNox1; average of three assays.
Text: as §1, §2, §3

In experiment [1] the test system is PFF-induced Parkinson's disease. Put plainly: PFF-induced Parkinson's disease mice. Format: in vivo, C57BL/6 mice. The settings on record: 10 mg/kg intraperitoneal daily for 3 months. As for the experimental part:
In order to develop preformed fibrils (PFF)-induced Parkinson's disease, 8-12 week old C57BL/6 mice were stereotaxically inoculated with 5 μg of PFF into the right dorsal striatum (AP+0.2 mm, […], DV 2.6 mm). Five months post single inoculation of PFF, animals were intraperitoneally injected with the compound of Example 2 at 10 mg/kg daily for 3 months. […] The maximum force of the mouse forelimb was recorded with a grip strength meter. The single inoculation of PFF impaired the grip strength of the forelimb.

A further experiment has as its system BV2 cells. Put plainly: Nox inhibitory effect in BV2 cells (LPS-induced ROS generation, lucigenin chemiluminescence). In kind it is cell-based. The settings on record: BV2 cells pre-treated 30 minutes, 0-10000 nM, then LPS 200 ng/ml; FIG. 3. As for the experimental part: BV2 cells were washed with Hank's balanced salt solution (HBSS) and incubated in HBSS at 37° C. for 30 minutes. Then, the cells were treated with the compound (compound of Example 1 or compound of Example 2) at various concentrations (0 nM, 1 nM, 10 nM, 100 nM, 1000 nM, and 10000 nM). After 30 minutes, 200 ng/ml of lipopolysaccharide (LPS) and 200 μM of lucigenin were added to the cells. Lucigenin chemiluminescence was detected at 10 second intervals for 15 minutes using a luminometer (GLOMA, Promega).
Specifically, BV2 cells were pre-treated with Compound (A) of Example 1 or Compound (B) of Example 2 for 30 minutes and generation of reactive oxygen species (ROS) was detected after treatment with LPS (200 ng/ml). Data are expressed as mean ±SD (N=3).

In another experiment the target is T3, human Nox4 (Homo sapiens, UniProt Q9NPH5).
T3 construct: made in house; host or cells: transgenic Drosophila (UAS-hNox4/UAS-dDuox-RNAi; Da-GAL4/+), membranes from fly homogenate
T3 sequence (Q9NPH5 1-578): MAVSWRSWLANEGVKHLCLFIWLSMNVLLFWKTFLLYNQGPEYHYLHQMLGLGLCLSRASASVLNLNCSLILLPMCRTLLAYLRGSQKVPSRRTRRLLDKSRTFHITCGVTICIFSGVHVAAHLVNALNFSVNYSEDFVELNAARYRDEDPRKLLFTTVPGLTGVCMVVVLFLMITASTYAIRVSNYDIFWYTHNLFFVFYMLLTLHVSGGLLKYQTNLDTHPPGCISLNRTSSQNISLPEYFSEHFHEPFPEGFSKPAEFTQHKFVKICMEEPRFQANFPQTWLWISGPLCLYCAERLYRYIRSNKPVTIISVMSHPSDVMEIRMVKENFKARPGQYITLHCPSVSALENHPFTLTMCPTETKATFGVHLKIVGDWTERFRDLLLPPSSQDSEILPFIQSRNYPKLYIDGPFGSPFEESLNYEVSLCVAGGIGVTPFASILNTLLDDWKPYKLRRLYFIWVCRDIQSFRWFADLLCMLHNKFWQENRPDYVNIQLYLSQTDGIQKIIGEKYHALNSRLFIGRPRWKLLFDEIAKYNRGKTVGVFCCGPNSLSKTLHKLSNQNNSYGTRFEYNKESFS
Briefly: Lucigenin chemiluminescence assay, human Nox4. Format: biochemical. Particulars: Drosophila membranes expressing hNox4; average of three assays.
Text: as §1, §2, §3

What is called IC50 is the midpoint of a concentration-inhibition curve. A high value points to weaker potency. Consider `CC(C)CN1C(=O)C(=Cc2ccc(N(C)CCO)cc2)N(C)C1=S` (mixture of isomers) [Example 2, 5-(4-((2-hydroxyethyl)(methyl)amino)benzylidene)-3-isobutyl-1-methyl-2-thioxoimidazolidin-4-one], for which the half-maximal inhibitory concentration (IC50) on human Nox2 is 1.84 µM; against human Nox1 it was 1.49 µM; against human Nox4 it was 1.72 µM. In experiment [1] (five months post PFF inoculation, FIG. 11), the “amount of α-synuclein in the hippocampus (HP CA1, HP CA3)” value is given as “significantly decreased”. For the same molecule, the “astrocyte pathology (GFAP immuno-positive astrocytes) in the prefrontal cortex (Pfcx)” value in experiment [1] (FIG. 12) was “reduced GFAP immuno-positive astrocytes”. The “microglia pathology (Iba1 immunopositive activated microglia) in Pfcx and HP CA3” value in experiment [1] (FIG. 13) is recorded as “reduced Ibal immunopositive activated microglia”. Further, the “neuromuscular function (forelimb grip strength)” value in experiment [1] (FIG. 14) is “improved the grip strength”. In addition, in the experiment with BV2 cells, the “generation of reactive oxygen species (ROS)” value was “significant inhibition of ROS generation”.

For the molecule `COc1cc(N(C)CCO)ccc1/C=C1\C(=O)N(C2CCCCC2)C(=S)N1C` [Example 3, (E)-3-cyclohexyl-5-(4-((2-hydroxyethyl)(methyl)amino)-2-methoxybenzylidene)-1-methyl-2-thioxoimidazolidin-4-one], the results for the IC50 on human Nox2 and against human Nox4 were 1.58 µM and 1.72 µM, respectively.

As for `CN1C(=S)N(C2CCCCC2)C(=O)/C1=C\c1ccc(N(C)CCO)cc1O` [Example 4, (E)-3-cyclohexyl-5-(2-hydroxy-4-((2-hydroxyethyl)(methyl)amino)benzylidene)-1-methyl-2-thioxoimidazolidin-4-one], the IC50 against human Nox2 worked out at 0.52 µM; at human Nox4, 1.4 µM.

On to `CN1C(=S)N(Cc2ccccc2)C(=O)/C1=C\c1ccc(N(C)CCCO)cc1` [Example 5, (E)-3-benzyl-5-(4-((3-hydroxypropyl)(methyl)amino)benzylidene)-1-methyl-2-thioxoimidazolidin-4-one], for which the IC50 against human Nox2 was 1.35 µM; against human Nox4, 0.907 µM.

Consider `CN1C(=S)N(CCc2ccccc2)C(=O)/C1=C\c1ccc(N(C)CCO)cc1` [Example 6, (E)-5-(4-((2-hydroxyethyl)(methyl)amino)benzylidene)-1-methyl-3-phenethyl-2-thioxoimidazolidin-4-one], for which the IC50 is 1.96 µM at human Nox2 and 1.8 µM on human Nox4.

As to `CN1C(=S)N(Cc2ccccc2)C(=O)/C1=C\c1ccc(N(C)CCO)cc1O` [Example 7, (E)-3-benzyl-5-(2-hydroxy-4-((2-hydroxyethyl)(methyl)amino)benzylidene)-1-methyl-2-thioxoimidazolidin-4-one], the IC50 was 0.773 µM against human Nox2 and 0.665 µM against human Nox4.

`COc1cc(N(C)CCCO)ccc1/C=C1\C(=O)N(Cc2ccccc2)C(=S)N1C` [Example 8, (E)-3-benzyl-5-(4-((3-hydroxypropyl)(methyl)amino)-2-methoxybenzylidene)-1-methyl-2-thioxoimidazolidin-4-one]: the figures for the IC50 against human Nox2 and against human Nox4 were 1.9 µM and 0.761 µM, respectively.
